Test results published in patent US6143724A, “2-fluorofucosyl-N-aroylglucosamine derivatives, intermediates, therefor, and processes for producing these” (Daikin Industries, Ltd., priority 1997, dated 2000).
Entries after “also recorded” stand apart in the source; their conditions may differ.

Columns and labels:
[1] = test system: selectins; details: cited from earlier work
[2] = test system: acute inflammation of the lung induced by cobra toxin; details: rats, Mulligan et al., Nature 364, 149 (1993); cited from earlier work
[3] = test system: α-fucosidase; test: Evaluation of metabolic stability of sialyl Lewis X derivatives to α-fucosidase (TLC spot densitometry); assay type: in vitro ADME; details: for Spot Area: 28° C.
Method: The metabolic stability of various sialyl Lewis X derivatives to α-fucosidase was assayed. The various sialyl Lewis X derivatives which were used in Example [(2F-Fuc-t-Bu) SLcXOSE], Comparative Example 1 (SLeX Ganglioside), and Comparative Example 2 [(2F-Fuc) SLeX Ganglioside] are shown in the following structural formulas. Herein, the compound used in the present Example is the compound represented by said structural formula (β) obtained in said Example 11. [drawing 48] After […] of each sialyl Lewis X derivative was dissolved in 0.1 mL of dist. water, 0.1 mL of ammonium sulfate suspension of α-fucosidase (made by Wako Chemicals: 2 units or more/mg protein) was added to this solution at 28° C., then the reaction solution was charged on a silica gel TLC plate 5715 (made by Merck Company) at every reaction time course. After developing up to 2 cm using developing solvents (n-butanol:acetic acid:water=8:5:4), this was soaked in an aqueous solution of molybdenum phosphate/phosphoric acid/sulfuric acid mixture, and heated to color. The Rf values (moving ratio) on the TLC plate of products decomposed by α-fucosidase and each sialyl Lewis X derivative (substrate) were as follows.
Further, it was confirmed from the mass spectrum that each sialyl Lewis X derivative is decomposed by α-fucosidase, and the corresponding derivatives from which the fucose moiety was removed were produced as respective decomposed products. Further, as shown in following Table 1, the residual rates of the individual sialyl Lewis X derivatives were calculated from each spot area (hereinafter, sometimes referred to merely as the area) after each reaction time course as follows. Herein, each area was measured using a densitometer (software: VILBER LOURMAT BIOID V 6.31a): Residual rate of sialyl Lewis X derivative=(substrate area)/(total area of substrate area plus decomposed product area).

[4] = molecular target: T1, P selectin (Homo sapiens, UniProt P16109); details: H. Kondo et al., J. Med. Chem. 39, 1339 (1996); cited from earlier work
T1 sequence (P16109 42-830): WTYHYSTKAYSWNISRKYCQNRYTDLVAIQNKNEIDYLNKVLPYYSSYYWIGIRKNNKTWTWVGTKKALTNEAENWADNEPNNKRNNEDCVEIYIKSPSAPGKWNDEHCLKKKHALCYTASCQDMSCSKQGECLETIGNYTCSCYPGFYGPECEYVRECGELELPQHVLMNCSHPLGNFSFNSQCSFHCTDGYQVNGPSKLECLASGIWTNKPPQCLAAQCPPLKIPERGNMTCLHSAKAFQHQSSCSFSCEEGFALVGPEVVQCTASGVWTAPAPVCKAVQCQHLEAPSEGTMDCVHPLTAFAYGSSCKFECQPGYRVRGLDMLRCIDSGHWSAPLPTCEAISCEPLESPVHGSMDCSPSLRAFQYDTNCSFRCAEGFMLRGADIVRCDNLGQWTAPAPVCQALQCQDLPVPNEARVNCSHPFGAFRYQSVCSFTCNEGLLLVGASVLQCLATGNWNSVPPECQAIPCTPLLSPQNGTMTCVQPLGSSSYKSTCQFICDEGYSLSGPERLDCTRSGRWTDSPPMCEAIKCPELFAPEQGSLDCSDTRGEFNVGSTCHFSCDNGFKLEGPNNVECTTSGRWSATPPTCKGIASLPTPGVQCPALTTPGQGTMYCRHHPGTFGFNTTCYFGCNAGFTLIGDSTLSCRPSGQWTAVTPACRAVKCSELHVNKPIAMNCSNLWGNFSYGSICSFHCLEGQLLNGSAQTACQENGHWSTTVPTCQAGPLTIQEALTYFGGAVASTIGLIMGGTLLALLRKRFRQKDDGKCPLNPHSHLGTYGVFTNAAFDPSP

[5] = time course 0 min after addition of α-fucosidase
[6] = time course 0.5 min after addition of α-fucosidase, * = color on the TLC completely disappeared
[7] = time course 1.0 min after addition of α-fucosidase

SMILES	stability against / resistance to decomposition by α-fucosidase (in words, from FIG. 1) [3]	Spot Area [3, 5] [cm^2]	Spot Area [3, 6] [cm^2]	Spot Area [3, 7] [cm^2]	further results
CCCCCCCCCCCCCCC(CCCCCCCCCCCCCC)CO[C@@H]1O[C@H](CO)[C@@H](O[C@@H]2O[C@H](CO)[C@H](O)[C@H](OS(=O)(=O)O)[C@H]2O)[C@H](O[C@@H]2O[C@@H](C)[C@@H](O)[C@@H](O)[C@@H]2O)[C@H]1NC(C)=O [GSC-150]					selectin adhesion-inhibitory activity (in words) [1]: powerful selectin blocker
CC(=O)NC1C(O)CC(OC2C(O)C(CO)OC(OC3C(CO)OC(O)C(NC(C)=O)C3OC3OC(C)C(O)C(O)C3O)C2O)(C(=O)O)OC1C(O)C(O)CO (centres unmarked) [structural formula (III)]					acute inflammation of the lung [2]: reduced
CCCCCCCCCCCCC/C=C/[C@@H](O)[C@H](CO[C@@H]1O[C@H](CO)[C@@H](O[C@@H]2O[C@H](CO)[C@H](O)[C@H](O[C@@H]3O[C@H](CO)[C@@H](O[C@@H]4O[C@H](CO)[C@H](O)[C@H](O[C@]5(C(=O)O)C[C@H](O)[C@@H](NC(C)=O)[C@H]([C@H](O)[C@H](O)CO)O5)[C@H]4O)[C@H](O[C@@H]4O[C@@H](C)[C@@H](O)[C@@H](O)[C@@H]4F)[C@H]3NC(C)=O)[C@H]2O)[C@H](O)[C@H]1O)NC(=O)CCCCCCCCCCCCCCCCCCCCCCC [Comparative Example 2]	weak resistance to decomposition	1.0	0.36	0.30	
CC(=O)NC1COC(CO)C(OC2OC(CO)C(O)C(OC3(C(=O)O)CC(O)C(NC(C)=O)C(C(O)C(O)CO)O3)C2O)C1OC1OC(C)C(O)C(O)C1O (centres unmarked) [structural formula (V)]					adhesion-inhibitory activity to P selectin relative to the sialyl Lewis X glycoside of Structural Formula (III) [4]: 20 times
CCCCCCCCCCCCC/C=C/[C@@H](O)[C@H](CO[C@@H]1O[C@H](CO)[C@@H](O[C@@H]2O[C@H](CO)[C@H](O)[C@H](O[C@@H]3O[C@H](CO)[C@@H](O[C@@H]4O[C@H](CO)[C@H](O)[C@H](O[C@]5(C(=O)O)C[C@H](O)[C@@H](NC(C)=O)[C@H]([C@H](O)[C@H](O)CO)O5)[C@H]4O)[C@H](O[C@@H]4O[C@@H](C)[C@@H](O)[C@@H](O)[C@@H]4O)[C@H]3NC(C)=O)[C@H]2O)[C@H](O)[C@H]1O)NC(=O)CCCCCCCCCCCCCCCCC [Comparative Example 1]	rapid decomposition	1.0	0.0		
CC(=O)NC1C(O)CC(OC2C(O)C(CO)OC(OC3C(CO)OC(OC4C(O)C(CO)OC(OC5C(CO)OC(OCC[Si](C)(C)C)C(O)C5O)C4O)C(NC(=O)c4ccc(C(C)(C)C)cc4)C3OC3OC(C)C(O)C(O)C3F)C2O)(C(=O)O)OC1C(O)C(O)CO [Example, 2-(trimethylsilyl)ethyl O-(5-acetamide-3,5-dideoxy-D-glycero-α-D-galacto-2-nunolopyranosylonic acid)-(2→3)-O-β-D-galactopyranosyl-(1→4)-O-[(2-deoxy-2-fluoro-α-L-fucopyranosyl)-(1→3)]-O-[(2-deoxy-2-(4-t-butylbenzamide)-β-D-glucopyranosyl)]-(1→3)-(O-β-D-galactopyranosyl)-(1→4)-β-D-glucopyranoside]	excellent in stability against α-fucosidase; also recorded: strongly resistant to decomposition reaction	1.0		0.73	Spot Area ([3]; time course 2.0 min after addition of α-fucosidase): 0.44 cm^2
